Ki data for four molecules are collected here from ChEMBL document CHEMBL4145602, “Cyclic Peptidic Mimetics of Apollo Peptides Targeting Telomeric Repeat Binding Factor 2 (TRF2) and Apollo Interaction” (ACS Med Chem Lett, 2018).

Each structure is given as a SMILES string. Peptide text beside a SMILES is read from it.

One may read the Ki as a measure of affinity in units of concentration, obtained from inhibition or displacement. The low end stands for tighter binding, the high end for weaker binding.

This assay has as its target T1, Telomeric repeat-binding factor 2 (Homo sapiens, UniProt Q15554).
T1 sequence (Q15554 whole entry): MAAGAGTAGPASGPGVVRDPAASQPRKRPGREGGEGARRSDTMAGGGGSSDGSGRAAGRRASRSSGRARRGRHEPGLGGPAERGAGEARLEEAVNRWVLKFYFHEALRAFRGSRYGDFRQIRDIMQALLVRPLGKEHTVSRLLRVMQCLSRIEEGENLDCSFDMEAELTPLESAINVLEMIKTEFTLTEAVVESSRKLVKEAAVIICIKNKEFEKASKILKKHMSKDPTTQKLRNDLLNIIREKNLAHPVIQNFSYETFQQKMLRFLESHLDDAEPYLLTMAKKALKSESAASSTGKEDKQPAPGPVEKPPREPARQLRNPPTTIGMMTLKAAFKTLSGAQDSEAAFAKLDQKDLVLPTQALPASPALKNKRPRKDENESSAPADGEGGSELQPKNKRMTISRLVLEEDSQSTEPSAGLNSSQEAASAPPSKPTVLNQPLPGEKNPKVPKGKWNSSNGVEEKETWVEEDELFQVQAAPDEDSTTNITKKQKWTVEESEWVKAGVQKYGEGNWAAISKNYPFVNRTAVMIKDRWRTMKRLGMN
The assay is described as follows: Displacement of 5-((2R,6S,9S,12S,15S,18S,21S,24S)-3-((S)-2-((S)-1-amino-3-methyl-1-oxobutan-2-ylcarbamoyl)pyrrolidine-1-carbonyl)-15-(4-aminobutyl)-2-hydroxy-12-(4-hydroxybenzyl)-6,9,18,24-tetraisobutyl-21-methyl-5,8,11,14,17,20,23,26,29-nonaoxo-4,7,10,13,16,19,22,25,28-nonaazatetratriacontan-34-ylcarbamoyl)-2-(6-hydroxy-3-oxo-3H-xanthen-9-yl)benzoic acid from TRF2 TRFH domain (unknown origin) after 30 mins by fluorescence polarization assay. Background: Polarisation of emitted light reports the rotation of a fluorescent probe.
`CC(=O)N[C@@H](CC(C)C)C(=O)N[C@@H](C)C(=O)N[C@@H](CC(C)C)C(=O)N[C@@H](CCCCN)C(=O)N[C@@H](Cc1ccc(O)cc1)C(=O)N[C@@H](CC(C)C)C(=O)N[C@@H](C)C(=O)N[C@H](C(=O)N1CCC[C@H]1C(=O)N[C@H](C(N)=O)C(C)C)[C@@H](C)O` (Ac-LALKYLATPV-NH2) returned a Ki of more than 100 µM. In turn, `CC(C)C[C@H](NC(=O)[C@H](Cc1ccc(O)cc1)NC(=O)[C@H](CCCCN)NC(=O)[C@@H](N)CC(C)C)C(=O)N[C@@H](CC(C)C)C(=O)N[C@H](C(=O)N1CCC[C@H]1C(=O)N[C@H](C(=O)O)C(C)C)[C@@H](C)O` (H-LKYLLTPV-OH) showed an inhibition constant (Ki) of 26.8 µM. `CC(=O)N[C@@H](CC(C)C)C(=O)N[C@@H](C)C(=O)N[C@@H](CC(C)C)C(=O)N[C@@H](C)C(=O)N[C@@H](Cc1ccc(O)cc1)C(=O)N[C@@H](CC(C)C)C(=O)N[C@@H](CC(C)C)C(=O)N[C@H](C(=O)N1CCC[C@H]1C(=O)N[C@H](C(N)=O)C(C)C)[C@@H](C)O` (Ac-LALAYLLTPV-NH2) gave an inhibition constant (Ki) of 3.2 µM. Take `CC(=O)N[C@@H](CC(C)C)C(=O)N[C@@H](C)C(=O)N[C@@H](CC(C)C)C(=O)N[C@@H](CCCCN)C(=O)N[C@@H](Cc1ccc(O)cc1)C(=O)N[C@@H](CC(C)C)C(=O)N[C@@H](Cc1ccccc1)C(=O)N[C@H](C(=O)N1CCC[C@H]1C(=O)N[C@H](C(N)=O)C(C)C)[C@@H](C)O` (Ac-LALKYLFTPV-NH2): affinity was put at a Ki of 8.5 µM.
